For 26 compounds, IC50 results are on record in US12630528B2, “Amino aryl derivative useful as diacylglycerol acyltransferase 2 inhibitor and use thereof” (LG CHEM, LTD., priority 2019, dated 2026).

SMILES strings stand for the structures.

In the assay the target is T1, human DGAT2 (Homo sapiens, UniProt Q96PD7).
T1 construct: FLAG (DYKDDDDK); made in house; host or cells: Sf-21 insect cells (BacPAK baculovirus system); membrane fraction used
T1 sequence (Q96PD7 1-388): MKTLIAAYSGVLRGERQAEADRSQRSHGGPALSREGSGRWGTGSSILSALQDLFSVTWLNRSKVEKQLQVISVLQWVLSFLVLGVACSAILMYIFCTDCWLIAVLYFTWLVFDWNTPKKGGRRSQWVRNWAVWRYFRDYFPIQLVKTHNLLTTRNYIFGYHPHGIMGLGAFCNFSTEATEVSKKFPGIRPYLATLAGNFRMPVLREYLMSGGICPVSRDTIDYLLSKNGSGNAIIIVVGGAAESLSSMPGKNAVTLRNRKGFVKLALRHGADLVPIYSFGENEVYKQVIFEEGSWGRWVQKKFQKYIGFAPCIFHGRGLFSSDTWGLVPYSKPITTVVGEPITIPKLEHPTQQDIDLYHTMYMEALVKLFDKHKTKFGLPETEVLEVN
Briefly: DGAT2 enzyme activity inhibition, Phospholipid FlashPlate SPA. Format: biochemical. Conditions: recombinant human DGAT2 membrane protein from Sf-21 cells; inhibition of [14C]-TG production; 37° C. The method in brief:
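Sf-21 membranes expressing recombinant human DGAT2 (2 μg) preincubated with compound (3 nM–10 μM, 1% DMSO) and 50 μM 1,2 sn-oleoyl glycerol, 20 min at 37 °C, then 1 μM [14C]oleoyl-CoA for 15 min. [14C]-TG counted by SPA; inhibition as % of untreated.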
As usually defined, the IC50 is the concentration that gives 50% inhibition. For `CCOc1ccccc1O[C@@H]1CCCN(c2cncc(Nc3nccc(N4CCC[C@@H](OCC(=O)O)C4)n3)n2)C1` [Example 132, 2-(((R)-1-(2-((6-((R)-3-(2-ethoxyphenoxy)piperidin-1-yl)pyrazin-2-yl)amino)pyrimidin-4-yl)piperidin-3-yl)oxy)acetic Acid], the IC50 amounted to 6700 nM.

With `CCOc1ccccc1O[C@@H]1CCCN(c2cncc(Nc3nccc(N4CCC[C@@H](OC(C)(C)C(=O)O)C4)n3)n2)C1` [Example 133, 2-(((R)-1-(2-((6-((R)-3-(2-ethoxyphenoxy)piperidin-1-yl)pyrazin-2-yl)amino)pyrimidin-4-yl)piperidin-3-yl)oxy)-2-methylpropanoic Acid], the concentration for half-maximal inhibition (IC50) turned out to be 3600 nM. In the case of `CCOc1cccnc1O[C@@H]1CCCN(c2cncc(Nc3nccc(O[C@H]4CC[C@H](C(=O)O)CC4)n3)n2)C1` [Example 136, (1R,4r)-4-((2-((6-((R)-3-((3-ethoxypyridin-2-yl)oxy)piperidin-1-yl)pyrazin-2-yl)amino)pyrimidin-4-yl)oxy)cyclohexane-1-carboxylic Acid], the IC50 is 300 nM. Consider `CCOc1cccnc1O[C@@H]1CCCN(c2cncc(Nc3nccc(O[C@H]4CC[C@@H](C(=O)O)CC4)n3)n2)C1` [Example 138, (1S,4s)-4-((2-((6-((R)-3-((3-ethoxypyridin-2-yl)oxy)piperidin-1-yl)pyrazin-2-yl)amino)pyrimidin-4-yl)oxy)cyclohexane-1-carboxylic Acid], for which the concentration for half-maximal inhibition (IC50) came out at 780 nM. For `CCOc1ccccc1O[C@@H]1CCCN(c2cncc(Nc3nccc(-c4cccc(C(=O)O)n4)n3)n2)C1` [Example 139, (R)-6-(2-((6-(3-(2-ethoxyphenoxy)piperidin-1-yl)pyrazin-2-yl)amino)pyrimidin-4-yl)picolinic Acid] the value was above 10000 nM; for `CCOc1ccccc1O[C@@H]1CCCN(c2cncc(Nc3nccc(-c4cccc(CC(=O)O)c4)n3)n2)C1` [Example 140, (R)-2-(3-(2-((6-(3-(2-ethoxyphenoxy)piperidin-1-yl)pyrazin-2-yl)amino)pyrimidin-4-yl)phenyl)acetic Acid], 150 nM.

Consider `CCOc1ccccc1O[C@@H]1CCCN(c2cncc(Nc3nccc(-c4cccc(C(C)(C)C(=O)O)c4)n3)n2)C1` [Example 141, (R)-2-(3-(2-((6-(3-(2-ethoxyphenoxy)piperidin-1-yl)pyrazin-2-yl)amino)pyrimidin-4-yl)phenyl)-2-methylpropanoic Acid], for which the 50% inhibitory concentration (IC50) is 1600 nM. As for `CCOc1cccnc1O[C@@H]1CCCN(c2cncc(Nc3nccc(-c4cccc(C(C)(C)C(=O)O)c4)n3)n2)C1` [Example 142, (R)-2-(3-(2-((6-(3-((3-ethoxypyridin-2-yl)oxy)piperidin-1-yl)pyrazin-2-yl)amino)pyrimidin-4-yl)phenyl)-2-methylpropanoic Acid], the half-maximal inhibitory concentration (IC50) worked out at 380 nM. Consider `CCOc1ccccc1O[C@@H]1CCCN(c2cncc(Nc3nccc(-c4ccc(C(C)(C)C(=O)O)cc4)n3)n2)C1` [Example 143, (R)-2-(4-(2-((6-(3-(2-ethoxyphenoxy)piperidin-1-yl)pyrazin-2-yl)amino)pyrimidin-4-yl)phenyl)-2-methylpropanoic Acid], for which the IC50 was 200 nM. For the compound `CCOc1cccnc1O[C@@H]1CCCN(c2cncc(Nc3nccc(-c4ccc(C(C)(C)C(=O)O)cc4)n3)n2)C1` [Example 144, (R)-2-(4-(2-((6-(3-((3-ethoxypyridin-2-yl)oxy)piperidin-1-yl)pyrazin-2-yl)amino)pyrimidin-4-yl)phenyl)-2-methylpropanoic Acid], the IC50 was 230 nM.

As to `CCOc1ccccc1O[C@@H]1CCCN(c2cncc(Nc3nccc(-c4cccc(CCC(=O)O)c4)n3)n2)C1` [Example 145, (R)-3-(3-(2-((6-(3-(2-ethoxyphenoxy)piperidin-1-yl)pyrazin-2-yl)amino)pyrimidin-4-yl)phenyl)propanoic Acid], the IC50 came out at 1700 nM. Next, `CCOc1ccccc1O[C@@H]1CCCN(c2cncc(Nc3nccc(-c4cccc(CC(C)(C)C(=O)O)c4)n3)n2)C1` [Example 146, (R)-3-(3-(2-((6-(3-(2-ethoxyphenoxy)piperidin-1-yl)pyrazin-2-yl)amino)pyrimidin-4-yl)phenyl)-2,2-dimethylpropanoic Acid]: 390 nM; `CCOc1cccnc1O[C@@H]1CCCN(c2cncc(Nc3nccc(-c4cccc(CC(C)(C)C(=O)O)c4)n3)n2)C1` [Example 147, (R)-3-(3-(2-((6-(3-((3-ethoxypyridin-2-yl)oxy)piperidin-1-yl)pyrazin-2-yl)amino)pyrimidin-4-yl)phenyl)-2,2-dimethylpropanoic Acid]: 150 nM; `CCOc1ccccc1O[C@@H]1CCCN(c2cccc(Nc3nccc(-c4cccc(CC(C)(C)C(=O)O)c4)n3)n2)C1` [Example 148, (R)-3-(3-(2-((6-(3-(2-ethoxyphenoxy)piperidin-1-yl)pyridin-2-yl)amino)pyrimidin-4-yl)phenyl)-2,2-dimethylpropanoic Acid]: 3100 nM. For `CCOc1ccccc1O[C@@H]1CCCN(c2nccc(Nc3nccc(-c4cccc(CC(C)(C)C(=O)O)c4)n3)n2)C1` [Example 149, (R)-3-(3-(2-((2-(3-(2-ethoxyphenoxy)piperidin-1-yl)pyrimidin-4-yl)amino)pyrimidin-4-yl)phenyl)-2,2-dimethylpropanoic Acid] the value was 5000 nM.

For the compound `CCOc1ccccc1O[C@@H]1CCCN(c2ccnc(Nc3nccc(-c4cccc(CC(C)(C)C(=O)O)c4)n3)n2)C1` [Example 150, (R)-3-(3-(2-((4-(3-(2-ethoxyphenoxy)piperidin-1-yl)pyrimidin-2-yl)amino)pyrimidin-4-yl)phenyl)-2,2-dimethylpropanoic Acid], the 50% inhibitory concentration (IC50) worked out at 1200 nM. `CCOc1cccnc1O[C@@H]1CCCN(c2cncc(Nc3nccc(-c4ccc(CC(=O)O)cc4)n3)n2)C1` [Example 152, (R)-2-(4-(2-((6-(3-((3-ethoxypyridin-2-yl)oxy)piperidin-1-yl)pyrazin-2-yl)amino)pyrimidin-4-yl)phenyl)acetic Acid]: the IC50 turned out to be 810 nM.

As for `CCOc1ccccc1O[C@@H]1CCCN(c2cncc(Nc3nccc(-c4ccc(CC(C)(C)C(=O)O)cc4)n3)n2)C1` [Example 153, (R)-3-(4-(2-((6-(3-(2-ethoxyphenoxy)piperidin-1-yl)pyrazin-2-yl)amino)pyrimidin-4-yl)phenyl)-2,2-dimethylpropanoic Acid], the IC50 is 160 nM. For the compound `CCOc1cccnc1O[C@@H]1CCCN(c2cncc(Nc3nccc(-c4ccc(CC(C)(C)C(=O)O)cc4)n3)n2)C1` [Example 154, (R)-3-(4-(2-((6-(3-((3-ethoxypyridin-2-yl)oxy)piperidin-1-yl)pyrazin-2-yl)amino)pyrimidin-4-yl)phenyl)-2,2-dimethylpropanoic Acid], the IC50 was 180 nM. For `CCOc1ccccc1O[C@@H]1CCCN(c2nccc(Nc3nccc(-c4ccc(CC(C)(C)C(=O)O)cc4)n3)n2)C1` [Example 155, (R)-3-(4-(2-((2-(3-(2-ethoxyphenoxy)piperidin-1-yl)pyrimidin-4-yl)amino)pyrimidin-4-yl)phenyl)-2,2-dimethylpropanoic Acid] the value was 550 nM; for `CCOc1ccccc1O[C@@H]1CCCN(c2ccnc(Nc3nccc(-c4ccc(CC(C)(C)C(=O)O)cc4)n3)n2)C1` [Example 156, (R)-3-(4-(2-((4-(3-(2-ethoxyphenoxy)piperidin-1-yl)pyrimidin-2-yl)amino)pyrimidin-4-yl)phenyl)-2,2-dimethylpropanoic Acid], 1200 nM; for `CCOc1cccnc1O[C@@H]1CCCN(c2ccnc(Nc3nccc(-c4ccc(CC(C)(C)C(=O)O)cc4)n3)n2)C1` [Example 157, (R)-3-(4-(2-((4-(3-((3-ethoxypyridin-2-yl)oxy)piperidin-1-yl)pyrimidin-2-yl)amino)pyrimidin-4-yl)phenyl)-2,2-dimethylpropanoic Acid], 720 nM. For the compound `CCOc1ccccc1O[C@@H]1CCCN(c2cncc(Nc3nccc(-c4cccc(OC(C)(C)C(=O)O)c4)n3)n2)C1` [Example 158, (R)-2-(3-(2-((6-(3-(2-ethoxyphenoxy)piperidin-1-yl)pyrazin-2-yl)amino)pyrimidin-4-yl)phenoxy)-2-methylpropanoic Acid], the half-inhibitory concentration (IC50) was determined as 1100 nM. For `CCOc1cccnc1O[C@@H]1CCCN(c2cncc(Nc3nccc(-c4cccc(OC(C)(C)C(=O)O)c4)n3)n2)C1` [Example 159, (R)-2-(3-(2-((6-(3-((3-ethoxypyridin-2-yl)oxy)piperidin-1-yl)pyrazin-2-yl)amino)pyrimidin-4-yl)phenoxy)-2-methylpropanoic Acid] the value was 560 nM. Next, `CCOc1ccccc1O[C@@H]1CCCN(c2cncc(Nc3nccc(-c4ccc(OC(C)(C)C(=O)O)cc4)n3)n2)C1` [Example 160, (R)-2-(4-(2-((6-(3-(2-ethoxyphenoxy)piperidin-1-yl)pyrazin-2-yl)amino)pyrimidin-4-yl)phenoxy)-2-methylpropanoic Acid]: 130 nM. For `CCOc1ccccc1O[C@@H]1CCCN(c2cncc(Nc3nccc(-c4ccc(NC(C)(C)C(=O)O)cc4)n3)n2)C1` [Example 161, (R)-2-((4-(2-((6-(3-(2-ethoxyphenoxy)piperidin-1-yl)pyrazin-2-yl)amino)pyrimidin-4-yl)phenyl)amino)-2-methylpropanoic Acid] the value was 190 nM.
